In paper PMC5562305, “Impact of novel palmitoylated prolactin-releasing peptide analogs on metabolic changes in mice with diet-induced obesity” (PLoS ONE, 2017):
Starred links: 1 amine or outer side, 2 acyl side, 3 side chain; linkers in the order of their positions; H or OH if unused. Residues, ends and D or L forms follow the SMILES beside them. Groups on a side chain read outwards from the residue. *: point of attachment. TTDA(Palmitoyl) = CCCCCCCCCCCCCCCC(=O)NCCCOCCOCCOCCCN*; Suc = O=C(CCC(=O)[*:2])[*:1]

Tested on: urinary metabolites
Experiment: NMR-based metabolomics of urine of DIO mice
Assay type: in vivo, C57BL/6 mice
Design: key to DMA, Mean / DMG, Mean / MA, Mean / TMA, Mean / acetate, Mean / allantoin, Mean / carnitine, Mean / choline, Mean / cis-aconitate, Mean / creatine+creatinine, Mean / creatine, Mean / creatinine, Mean / ethanolamine, Mean / formate, Mean / galactose, Mean / glucose, Mean / glycine, Mean / lactate, Mean / succinate, Mean / vinylacetylglycine, Mean: TSA-normalized intensity of the metabolite's representative NMR signal
Settings: urine of DIO mice, NMR metabolomics
Protocol: Urine samples for NMR-based metabolomics were collected prior to the start of the interventions and at the end of the experiment. For overnight urine collection (from 5 pm to 8 am), the mice were housed in individual metabolic cages (Tecniplast, Buguggiate, Italy) without access to food. Samples were collected with the addition of NaN3 and stored at -80°C until NMR analysis.
The urine samples were thawed at room temperature and centrifuged at 13 684 x g for 5 min prior to the NMR experiments. A 200-μl aliquot of supernatant was diluted with 340 μl of H2O mixed with 60 μl of phosphate buffer (1.5 M KH2PO4 in D2O containing 2 mM NaN3 and 0.1% trimethylsilyl propionic acid (TSP), pH 7.4) and transferred to a 5-mm NMR tube. The NMR data were acquired with a 600 MHz Bruker Avance III spectrometer (Bruker BioSpin, Rheinstetten, Germany) equipped with a 5-mm TCI cryogenic probe head. All of the experiments were performed at 300 K. Automatic tuning, matching, shimming and adjusting of the 90° pulse length were performed for each sample.
As mouse urine naturally contains urinary proteins, the NMR spectra were acquired using a Carr-Purcell-Meiboom-Gill (CPMG) pulse sequence with water presaturation (Bruker pulse sequence cpmgpr1d) to eliminate the strong protein background. […] For better metabolite identification, a short J-resolved experiment with presaturation (NS = 2, SW = 16 ppm, TD = 8k, number of increments = 40, SW = 78.125 Hz in the indirect dimension, and relaxation delay = 2 s) was executed for all samples. Additional two-dimensional ^1H-^1H correlation spectroscopy (COSY) and ^1H-^13C heteronuclear multiple-quantum correlation (HMQC) experiments (Bruker pulse sequences cosygpprqf and hmqcphpr) were performed for selected samples.
The acquired data were processed using Topspin 3.2 software (Bruker BioSpin, Rheinstetten, Germany). Line broadening of 0.3 Hz was applied on free induction decays (FIDs) prior to Fourier transformation. The spectra were automatically phased, baseline corrected and referenced to the signal of TSP (0.00 ppm).
The assignment of individual metabolites was achieved by comparing the proton spectra with the spectra of pure metabolites using Chenomx NMR Suite 7.6 (Chenomx Inc., Edmonton, AB, Canada), the HMDB database and previously published metabolomic data. The identification of metabolites was supported through J-resolved and COSY experiments and, if possible, confirmed using carbon chemical shifts extracted from the HMQC spectra.
For quantitation of individual metabolites, the CPMG spectra were uniformly binned in the range of 0.10–10.00 ppm to 0.01-ppm intervals using AMIX software (Bruker BioSpin, Rheinstetten, Germany). This procedure reduced the dimensionality of the data, eliminated chemical shift variations and thus simplified the reproducible automatic quantification. Regions corresponding to water (4.60–4.90 ppm) and urea (5.60–6.00 ppm) were removed prior to analysis. As the dilutions of the original urine samples differed (due to the differences in water intake during urine collection), all of the spectra were normalized to the total spectral area (TSA). For each identified metabolite, one representative signal was chosen and then quantified as the sum of appropriate adjacent 0.01-ppm bins to cover the whole signal width. The metabolite concentration was expressed as the TSA-normalized intensity of the respective signal. For selection of an appropriate statistical method (parametric or non-parametric) the Lilliefors test of normality was performed. […] Metabolite alterations with a P < 0.05 were considered statistically significant. Statistical analysis was performed using Matlab software (“MATLAB version 8.6 (R2015b). Natick, Massachusetts: The MathWorks Inc., 2015.,” n.d.). […]

[1] = difference of analog mean vs saline mean

CCCCCCCCCCCCCCCC(=O)NCCCOCCOCCOCCCNC(=O)CCC(=O)NCCCC[C@H](NC(=O)[C@@H](NC(=O)[C@H](CCC(=O)O)NC(=O)[C@H](CCSC)NC(=O)[C@H](CO)NC(=O)[C@H](Cc1c[nH]cn1)NC(=O)[C@H](CCCNC(=N)N)NC(=O)[C@H](Cc1c[nH]cn1)NC(=O)[C@@H](NC(=O)[C@H](CCCNC(=N)N)NC(=O)[C@@H](N)CO)[C@@H](C)O)[C@@H](C)CC)C(=O)N[C@H](C(=O)N1CCC[C@H]1C(=O)N[C@@H](CC(=O)O)C(=O)N[C@H](C(=O)N[C@@H](CC(N)=O)C(=O)N1CCC[C@H]1C(=O)N[C@@H](C)C(=O)N[C@@H](Cc1c[nH]c2ccccc12)C(=O)N[C@@H](Cc1ccc(O)cc1)C(=O)N[C@@H](C)C(=O)N[C@@H](CO)C(=O)N[C@@H](CCCNC(=N)N)C(=O)NCC(=O)N[C@H](C(=O)N[C@@H](CCCNC(=N)N)C(=O)N1CCC[C@H]1C(=O)N[C@H](C(=O)NCC(=O)N[C@@H](CCCNC(=N)N)C(=O)N[C@@H](Cc1ccccc1)C(N)=O)C(C)C)[C@@H](C)CC)[C@@H](C)CC)[C@@H](C)O [analog 2] (H-SRTHRHSMEIK([Suc-TTDA(Palmitoyl)])TPDINPAWYASRGIRPVGRF-NH2; N-terminus assumed)
creatine, Saline/analog % [1]: -0.033% | creatinine, Saline/analog % [1]: 0.035% | ethanolamine, Saline/analog % [1]: -0.025% | formate, Saline/analog % [1]: 0.032% | fumarate, Saline/analog % [1]: -0.055% | galactose, Saline/analog % [1]: 0.041% | glucose, Saline/analog % [1]: -0.039% | glycine, Saline/analog % [1]: 0.016% | hexanoylglycine + acids (0.88 ppm), Saline/analog % [1]: 0.157% | hippurate (7.55 ppm), Saline/analog % [1]: 0.047% | hippurate (7.64 ppm), Saline/analog % [1]: 0.039% | hippurate (7.84 ppm), Saline/analog % [1]: 0.035% | lactate, Saline/analog % [1]: 0.156% | multiplet acids (1.6 ppm), Saline/analog % [1]: 0.157% | putrescin, Saline/analog % [1]: -0.042% | succinate, Saline/analog % [1]: 0.163% | taurine (3.27 ppm), Saline/analog % [1]: -0.196% | taurine (3.43 ppm), Saline/analog % [1]: -0.239% | trigonelline (8.84 ppm), Saline/analog % [1]: -0.008% | trigonelline (9.13 ppm), Saline/analog % [1]: -0.024% | vinylacetylglycine, Saline/analog % [1]: 0.163% | 2-OG (2.45 ppm), Mean (group mean): 11.956 | 2-OG (3.01 ppm), Mean (group mean): 10.103 | 2-PY (8.33 ppm), Mean (group mean): 0.992 | 3-indoxylsulfate (7.51 ppm), Mean (group mean): 1.459 | 3-indoxylsulfate (7.71 ppm), Mean (group mean): 0.842 | 4-PY (7.97 ppm), Mean (group mean): 1.710 | 4-PY (8.55 ppm), Mean (group mean): 0.484 | DMA, Mean (group mean): 5.145 | DMG, Mean (group mean): 1.928 | MA, Mean (group mean): 2.920 | MNA (8.90 ppm), Mean (group mean): 0.407 | MNA (8.97 ppm), Mean (group mean): 0.391 | MNA (9.265 ppm), Mean (group mean): 0.413 | MNA-Nox (7.75 ppm), Mean (group mean): 0.969 | MNA-Nox (8.13 ppm), Mean (group mean): 0.725 | MNA-Nox (8.49 ppm), Mean (group mean): 0.458 | MNA-Nox (8.75 ppm), Mean (group mean): 0.434 | N-carbamoylalanine (2.38 ppm), Mean (group mean): 10.919 | N-carbamoylalanine (3.31 ppm), Mean (group mean): 9.060 | N-isovalerylglycine + oxovalerate (0.92 ppm), Mean (group mean): 15.384 | TMA, Mean (group mean): 10.220 | acetate, Mean (group mean): 4.384 | allantoin, Mean (group mean): 21.272 | carnitine, Mean (group mean): 6.113 | choline, Mean (group mean): 2.053 | cis-aconitate, Mean (group mean): 9.014 | citrate (2.55 ppm), Mean (group mean): 31.737 | citrate (2.69 ppm), Mean (group mean): 28.801 | creatine+creatinine, Mean (group mean): 23.782 | creatine, Mean (group mean): 6.742 | creatinine, Mean (group mean): 11.494 | ethanolamine, Mean (group mean): 7.749 | formate, Mean (group mean): 0.205 | fumarate, Mean (group mean): 0.167 | galactose, Mean (group mean): 0.806 | glucose, Mean (group mean): 3.486 | glycine, Mean (group mean): 6.185 | hexanoylglycine + acids (0.88 ppm), Mean (group mean): 15.251 | hippurate (7.55 ppm), Mean (group mean): 4.857 | hippurate (7.64 ppm), Mean (group mean): 2.465 | hippurate (7.84 ppm), Mean (group mean): 5.092 | lactate, Mean (group mean): 7.122 | multiplet acids (1.6 ppm), Mean (group mean): 12.357 | putrescin, Mean (group mean): 8.544 | succinate, Mean (group mean): 12.532 | taurine (3.27 ppm), Mean (group mean): 20.714 | taurine (3.43 ppm), Mean (group mean): 17.197 | trigonelline (8.84 ppm), Mean (group mean): 0.310 | trigonelline (9.13 ppm), Mean (group mean): 0.125 | vinylacetylglycine, Mean (group mean): 3.494
